Assay results from US20120277264A1, “ANTITHROMBOTIC AGENT” (Taiho Pharmaceutical Co., Ltd., priority 2009, published 2012).

Experiments:
[1] = tested on: thrombus formation in the arteria testicularis; assay: Thrombus formation inhibitory action (FeCl3-induced thrombus, Test Example 1); format: in vivo; conditions: male ICR mice; for large thrombus formation time: control about 14 minutes
Procedure: Male ICR mice (ten weeks old) were used. Rhodamine 6G (platelet fluorescence-labeling agent) was administered to the tail vein under anesthesia. With the abdomen open, the arteria testicularis was subjected to FeCl3 treatment to induce thrombus formation. Thrombus formation was observed by a real time color three-dimensional observation device, and the thrombus formation time was measured. Suplatast tosilate (IPD), the compound of the present invention, was dissolved in water and orally administered in a single dose (100 mg/kg) 30 minutes before the FeCl3 treatment or for 7 consecutive days (100 mg/kg, 30 mg/kg, 10 mg/kg) before the FeCl3 treatment. In addition, as a control drug, tirofiban (0.3 μmol/kg) was intravenously administered.

[2] = Amount of bleeding after tail amputation (side effect, Test Example 2); format: in vivo, mice
Procedure: Male ICR mice (ten weeks old) were used. The last 2 mm of the tail was amputated with a scalpel under pentobarbital anesthesia, and the tail 2 cm from the tip was immediately immersed in 10 mL of physiological saline at 37° C. Twenty minutes later, the tail was removed from the physiological saline, and 1 mL of Triton X-100 (25% in water) was added. The absorbance at 546 nm was measured, and the amount of bleeding was determined from a calibration curve. Suplatast tosilate (IPD, 100 mg/kg), the compound of the present invention, and a control drug, warfarin (10 mg/kg) were dissolved in distilled water and orally administered in a single dose one hour before amputating the tail, or orally administered for 7 consecutive days before amputating the tail. Distilled water was administered to the control.

[3] = tested on: thrombus formation in the arteria testicularis; assay: Thrombus formation inhibition, combined use with cilostazol (FeCl3-induced thrombus, Test Example 3); format: in vivo; conditions: male ICR mice, control 12±3 minutes, P<0.05 vs. cont.
Procedure: Male ICR mice (ten weeks old) were used. Rhodamine 6G (platelet fluorescence-labeling agent) was administered to the tail vein under anesthesia. With the abdomen open, the arteria testicularis was subjected to FeCl3 treatment to induce thrombus formation. Thrombus formation was observed by a real time color three-dimensional observation device, and thrombus formation time was measured. Suplatast tosilate (IPD) (10 mg/kg) was dissolved in water and orally administered for 7 days before amputating the tail to the group that was given IPD alone. Cilostazol (10 mg/kg, 30 mg/kg, 100 mg/kg), a platelet aggregation inhibitor, was dissolved in water and orally administered in a single dose one hour before amputating the tail to the group that was given cilostazol alone. To the combination group of IPD and cilostazol, IPD (10 mg/kg) was orally administered for 7 days, and cilostazol (10 mg/kg) was orally administered in a single dose one hour before amputating the tail on the 7th day of the IPD administration.

CCOCC(O)COc1ccc(NC(=O)CC[S+](C)C)cc1.Cc1ccc(S(=O)(=O)[O-])cc1 (racemic) [IPD, (±)-[2-[4-(3-ethoxy-2-hydroxypropoxy)phenylcarbamoyl]ethyl]dimethylsulfonium p-toluenesulfonate]
large thrombus formation time ([1]; 100 mg/kg orally, single dose 30 minutes before FeCl3 treatment): 45 min
large thrombus formation inhibitory action ([1]; oral administration for 7 consecutive days (100, 30, 10 mg/kg) vs single dose): clearly enhanced
amount of bleeding ([2]; mouse, in vivo, po, 100 mg/kg): did not have a significant effect on the amount of bleeding
thrombus formation time ([3]; IPD alone 10 mg/kg orally for 7 days): 36 ± 11 min

O=C1CCc2cc(OCCCCc3nnnn3C3CCCCC3)ccc2N1 [cilostazol]
thrombus formation time ([3]; cilostazol alone, oral single dose (10, 30, 100 mg/kg tested; dose of this value not stated)): 25 ± 5 min

CCCCS(=O)(=O)N[C@@H](Cc1ccc(OCCCCC2CCNCC2)cc1)C(=O)O [tirofiban]
large thrombus formation time ([1]; 0.3 μmol/kg intravenously, after FeCl3 stimulation): 60 min

CC(=O)CC(c1ccccc1)c1c(O)c2ccccc2oc1=O (centres unmarked) [warfarin]
amount of bleeding ([2]; male ICR mice, 10 mg/kg orally for 7 consecutive days before amputating the tail): notable effect of increasing the amount of bleeding
amount of bleeding ([2]; male ICR mice, 10 mg/kg orally, single dose one hour before amputating the tail): notable effect of increasing the amount of bleeding
